# From PMC7979765, “trans-Translation inhibitors bind to a novel site on the ribosome and clear Neisseria gonorrhoeae in vivo” (Nature Communications, 2021)
# Like-named read-outs stand apart in the source and are kept apart here.
# Tests used:
# [1] = Liver microsome stability, rat; assay type: in vitro ADME
# Method: (§1) To examine potential for first-pass metabolism of analogs in the liver, the stability of analogs in the presence of liver microsome preparations (Eurofins Discovery for human, dog and rat; Xenotech for mouse) was measured using the method of Kuhnz, et al.[50]. for murine studies and Oback for the dog, human and rat studies. The amount of parent compound remaining after incubation with microsomes in the presence of NADPH over a 30 min time range was measured using a reverse-phase liquid chromatography/mass spectroscopy method that was customized for each compound. Half-lives were calculated using linear regression analysis of several time points.
# [2] = Liver microsome stability, human; assay type: in vitro ADME
# Method: as §1
# Mycoplasma pneumoniae = test: MIC, microbroth dilution; assay type: cell-based
# [3] = Murine tolerability studies; assay type: in vivo; settings: for adverse effects (in words): mice
# Method: Single dose tolerability studies — Female CD-1 mice were fasted for 2 h prior, and 4 h after dosing. […] 4–6 weeks-old CD-1 female mice were received from Charles River laboratories and acclimated for at least 5 days prior to the start of the study. Apart from specific instances of fasting described in the experimental, the mice had free access to food and water. The animals were housed 3–6 per cage in a temperature and humidity-controlled room with a 12 h light cycle. All procedures described are in compliance with the Animal Welfare Act, the Guide for the Care and Use of Laboratory Animals, and the Office of Laboratory Animal Welfare. These studies conform to the NeoSome IACUC policies and Operational Guidelines as approved by the IACUC membership, NeoSome Safety Officers, or Attending Veterinarian. All testing was performed at Neosome LLC.
# Multidose tolerability studies — In preparation for this study, an abbreviated version of the above murine PK study using the same formulation (A) examined fasted mice vs. fed mice was performed, with plasma samples taken at 1 and 4 h post dosing and analyses as described in the PK section.
# Female CD-1 mice were given free access to food and water. […] Any abnormal observations (behavior, agility, weight, coat condition and appearance, color of urine, quality of feces, etc.) were noted.
# Kir2.1 = target: T1, Kir2.1 (Homo sapiens, UniProt P63252); test: Cardiac Ion Channel Panel; assay type: cell-based; settings: Kir2.1 antagonist; Peak $ End; CYL8032QP2DR; read-out: IC50 (µM) reported
# T1 construct: Eurofins Discovery Services (contract assay) CYL8032QP2DR
# Method: (§2) Several in vitro selectivity assays were performed at Eurofins Discovery Services using established methods and controls that behaved as expected (Supplementary Tables 5 and 6). […] For receptor panel profiling, MBX-4132 was evaluated at 10 μM and activity of >50% (agonist or antagonist; note that negative % inhibition indicates agonism) was scored as active.
# Kv4.3/ChIP2 = target: T2, Kv4.3/ChIP2 (Homo sapiens, UniProt Q9UK17); test: Cardiac Ion Channel Panel; assay type: cell-based; settings: Kv4.3/ChIP2 antagonist; Peak $ End; CYL8069QP2DR; read-out: IC50 (µM) reported
# T2 construct: Eurofins Discovery Services (contract assay) CYL8069QP2DR
# T2 sequence (Q9UK17 whole entry): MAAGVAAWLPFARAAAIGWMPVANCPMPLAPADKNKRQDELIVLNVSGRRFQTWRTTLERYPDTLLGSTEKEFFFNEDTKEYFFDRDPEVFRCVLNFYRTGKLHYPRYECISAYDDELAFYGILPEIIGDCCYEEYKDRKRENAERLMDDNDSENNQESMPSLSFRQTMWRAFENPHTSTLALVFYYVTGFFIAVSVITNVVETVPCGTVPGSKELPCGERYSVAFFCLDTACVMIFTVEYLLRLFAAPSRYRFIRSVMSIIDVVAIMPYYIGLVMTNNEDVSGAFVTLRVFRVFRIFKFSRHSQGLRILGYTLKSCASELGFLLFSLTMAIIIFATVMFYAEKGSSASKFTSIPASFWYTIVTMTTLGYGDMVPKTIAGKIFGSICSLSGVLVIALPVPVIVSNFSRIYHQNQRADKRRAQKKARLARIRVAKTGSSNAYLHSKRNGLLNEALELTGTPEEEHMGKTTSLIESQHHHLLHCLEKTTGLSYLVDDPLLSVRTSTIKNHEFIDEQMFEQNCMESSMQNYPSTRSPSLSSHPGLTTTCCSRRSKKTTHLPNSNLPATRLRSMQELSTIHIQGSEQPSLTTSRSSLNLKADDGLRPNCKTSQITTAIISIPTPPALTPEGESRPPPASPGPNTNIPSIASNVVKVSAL
# T2 sequence (Q9NS61 whole entry partner): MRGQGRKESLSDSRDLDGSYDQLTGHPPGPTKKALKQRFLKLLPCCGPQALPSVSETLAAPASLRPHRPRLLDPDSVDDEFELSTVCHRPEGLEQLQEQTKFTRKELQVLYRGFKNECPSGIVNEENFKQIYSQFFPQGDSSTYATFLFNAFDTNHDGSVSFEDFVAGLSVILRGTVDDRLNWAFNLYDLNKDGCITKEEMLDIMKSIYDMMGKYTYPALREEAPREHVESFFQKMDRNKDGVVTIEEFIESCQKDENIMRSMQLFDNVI
# Method: as §2
# Nav1.5 = target: T3, Nav1.5 (Homo sapiens, UniProt Q14524); test: Cardiac Ion Channel Panel; assay type: cell-based
# T3 construct: Eurofins Discovery Services (contract assay) CYL8004QP2DR; CYL7004QP1DR; CYL7004QP2DR
# Method: as §2
# Nav1.5 late current = target: T4, Nav1.5 late current (Homo sapiens, UniProt Q14524); test: Cardiac Ion Channel Panel; assay type: cell-based
# T4 construct: Eurofins Discovery Services (contract assay) CYL8004QP2DR; CYL7004QP1DR; CYL7004QP2DR
# T4 sequence (Q14524 whole entry): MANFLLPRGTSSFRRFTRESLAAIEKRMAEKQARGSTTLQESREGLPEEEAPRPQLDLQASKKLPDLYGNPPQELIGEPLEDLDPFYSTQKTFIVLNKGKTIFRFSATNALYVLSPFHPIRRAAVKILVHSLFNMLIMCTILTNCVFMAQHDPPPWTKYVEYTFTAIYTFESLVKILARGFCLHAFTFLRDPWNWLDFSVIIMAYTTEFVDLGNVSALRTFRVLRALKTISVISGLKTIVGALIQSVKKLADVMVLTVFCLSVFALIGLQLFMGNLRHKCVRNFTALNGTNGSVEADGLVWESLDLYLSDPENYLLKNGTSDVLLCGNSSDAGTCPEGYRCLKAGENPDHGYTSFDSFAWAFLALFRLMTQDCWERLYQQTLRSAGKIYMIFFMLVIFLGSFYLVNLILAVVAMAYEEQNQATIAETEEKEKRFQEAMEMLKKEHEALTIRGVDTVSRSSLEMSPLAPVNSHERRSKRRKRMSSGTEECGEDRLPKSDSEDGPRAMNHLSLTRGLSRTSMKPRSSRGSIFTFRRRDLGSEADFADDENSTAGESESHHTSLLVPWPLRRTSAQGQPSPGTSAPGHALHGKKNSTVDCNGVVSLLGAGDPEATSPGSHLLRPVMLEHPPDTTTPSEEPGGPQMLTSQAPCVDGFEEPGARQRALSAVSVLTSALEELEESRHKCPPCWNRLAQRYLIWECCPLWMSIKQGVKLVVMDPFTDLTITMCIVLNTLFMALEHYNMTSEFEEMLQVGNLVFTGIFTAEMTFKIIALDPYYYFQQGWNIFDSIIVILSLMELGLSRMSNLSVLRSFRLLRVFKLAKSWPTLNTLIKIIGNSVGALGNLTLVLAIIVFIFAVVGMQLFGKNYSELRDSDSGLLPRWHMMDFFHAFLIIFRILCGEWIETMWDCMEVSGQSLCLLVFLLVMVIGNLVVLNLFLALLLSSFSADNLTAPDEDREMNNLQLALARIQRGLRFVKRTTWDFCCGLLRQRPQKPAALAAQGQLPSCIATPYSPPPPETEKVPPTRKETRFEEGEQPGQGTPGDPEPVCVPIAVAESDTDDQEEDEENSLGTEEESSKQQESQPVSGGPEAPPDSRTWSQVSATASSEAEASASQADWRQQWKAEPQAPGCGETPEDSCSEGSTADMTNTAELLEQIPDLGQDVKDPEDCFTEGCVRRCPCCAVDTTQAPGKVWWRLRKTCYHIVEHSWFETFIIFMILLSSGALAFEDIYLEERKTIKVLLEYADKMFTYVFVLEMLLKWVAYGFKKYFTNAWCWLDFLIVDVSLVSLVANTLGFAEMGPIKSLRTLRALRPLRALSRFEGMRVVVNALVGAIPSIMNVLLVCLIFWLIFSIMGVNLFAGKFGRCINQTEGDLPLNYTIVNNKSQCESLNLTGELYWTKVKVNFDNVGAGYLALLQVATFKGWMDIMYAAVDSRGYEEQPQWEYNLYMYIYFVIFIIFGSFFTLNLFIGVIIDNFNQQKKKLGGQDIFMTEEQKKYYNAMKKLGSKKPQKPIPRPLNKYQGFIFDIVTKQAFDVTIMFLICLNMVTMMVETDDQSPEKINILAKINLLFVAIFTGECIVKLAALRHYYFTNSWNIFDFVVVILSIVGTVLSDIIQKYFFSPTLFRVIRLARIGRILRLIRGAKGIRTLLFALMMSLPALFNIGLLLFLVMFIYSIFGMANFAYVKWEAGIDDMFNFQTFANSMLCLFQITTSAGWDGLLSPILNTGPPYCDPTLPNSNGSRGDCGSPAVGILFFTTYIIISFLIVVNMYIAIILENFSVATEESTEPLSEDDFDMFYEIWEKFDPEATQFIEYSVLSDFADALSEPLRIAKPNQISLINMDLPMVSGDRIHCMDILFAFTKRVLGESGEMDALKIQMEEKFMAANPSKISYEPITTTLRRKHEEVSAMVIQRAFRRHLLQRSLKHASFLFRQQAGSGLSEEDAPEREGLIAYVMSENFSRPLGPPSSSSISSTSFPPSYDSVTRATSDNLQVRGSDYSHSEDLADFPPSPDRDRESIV
# Method: as §2
# hERG = target: T5, hERG (Homo sapiens, UniProt Q12809); test: Cardiac Ion Channel Panel; assay type: cell-based; settings: hERG antagonist; CYL8038QP2DR; read-out: IC50 (µM) reported
# T5 construct: Eurofins Discovery Services (contract assay) CYL8038QP2DR
# Method: as §2
# Monoamine Oxidase MAO-A = target: T6, Monoamine Oxidase MAO-A (Homo sapiens, UniProt P21397); test: Receptor Profiling 140010; assay type: biochemical; settings: negative % inhibition indicates agonism
# T6 construct: Eurofins Discovery Services (contract assay) 140010
# T6 sequence (P21397 whole entry): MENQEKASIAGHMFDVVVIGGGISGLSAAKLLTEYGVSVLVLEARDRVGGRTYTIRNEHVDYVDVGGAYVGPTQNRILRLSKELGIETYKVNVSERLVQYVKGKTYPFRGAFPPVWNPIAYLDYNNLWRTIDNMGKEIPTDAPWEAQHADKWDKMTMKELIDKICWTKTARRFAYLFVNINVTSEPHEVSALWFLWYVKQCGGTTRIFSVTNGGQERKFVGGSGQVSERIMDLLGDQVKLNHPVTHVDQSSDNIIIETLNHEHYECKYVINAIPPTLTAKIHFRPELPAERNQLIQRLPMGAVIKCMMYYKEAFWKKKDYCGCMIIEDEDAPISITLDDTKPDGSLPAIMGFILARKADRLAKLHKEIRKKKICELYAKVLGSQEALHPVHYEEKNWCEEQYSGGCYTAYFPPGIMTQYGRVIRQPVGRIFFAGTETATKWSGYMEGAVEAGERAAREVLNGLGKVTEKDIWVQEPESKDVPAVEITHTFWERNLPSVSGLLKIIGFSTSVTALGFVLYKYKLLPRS
# Method: as §2
# Adrenergic β1 = target: T7, Adrenergic β1 (Homo sapiens, UniProt P08588); test: Receptor Profiling 204010; assay type: binding
# T7 construct: purchased Eurofins Discovery Services (Panlabs safety panel)
# Method: as §2
# Adrenergic β2 = target: T8, Adrenergic β2 (Homo sapiens, UniProt P07550); test: Receptor Profiling 204110; assay type: binding
# T8 construct: purchased Eurofins Discovery Services (Panlabs safety panel)
# T8 sequence (P07550 whole entry): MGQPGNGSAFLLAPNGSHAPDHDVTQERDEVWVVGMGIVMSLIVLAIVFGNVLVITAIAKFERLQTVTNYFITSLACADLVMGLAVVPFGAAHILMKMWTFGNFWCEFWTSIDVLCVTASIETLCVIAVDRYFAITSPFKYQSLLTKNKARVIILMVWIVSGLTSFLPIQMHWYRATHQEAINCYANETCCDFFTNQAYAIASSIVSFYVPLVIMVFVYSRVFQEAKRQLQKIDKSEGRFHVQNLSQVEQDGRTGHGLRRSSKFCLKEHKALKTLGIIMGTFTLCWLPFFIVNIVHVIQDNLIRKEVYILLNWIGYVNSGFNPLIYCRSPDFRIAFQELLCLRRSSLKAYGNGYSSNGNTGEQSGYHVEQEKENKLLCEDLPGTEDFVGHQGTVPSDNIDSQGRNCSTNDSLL
# Method: as §2
# Androgen (testosterone) = target: T9, Androgen (testosterone) (Homo sapiens, UniProt P10275); test: Receptor Profiling 206000; assay type: binding
# T9 construct: purchased Eurofins Discovery Services (Panlabs safety panel)
# Method: as §2
# Dopamine D2s = target: T10, Dopamine D2s (Homo sapiens, UniProt P14416); test: Receptor Profiling 219700; assay type: binding
# T10 construct: purchased Eurofins Discovery Services (Panlabs safety panel)
# Method: as §2
# Endothelin ETA = target: T11, Endothelin ETA (Homo sapiens, UniProt P25101); test: Receptor Profiling 224010; assay type: binding
# T11 construct: purchased Eurofins Discovery Services (Panlabs safety panel)
# Method: as §2
# Glucocorticoid = target: T12, Glucocorticoid (Homo sapiens, UniProt P04150); test: Receptor Profiling 232030; assay type: binding
# T12 construct: purchased Eurofins Discovery Services (Panlabs safety panel)
# Method: as §2
# Glutamate, NMDA, Agonism = test: Receptor Profiling 232810; assay type: binding, rat; settings: 10 μM
# Method: as §2
# Histamine H2 = target: T13, Histamine H2 (Homo sapiens, UniProt P25021); test: Receptor Profiling 239710; assay type: binding
# T13 construct: purchased Eurofins Discovery Services (Panlabs safety panel)
# T13 sequence (P25021 whole entry): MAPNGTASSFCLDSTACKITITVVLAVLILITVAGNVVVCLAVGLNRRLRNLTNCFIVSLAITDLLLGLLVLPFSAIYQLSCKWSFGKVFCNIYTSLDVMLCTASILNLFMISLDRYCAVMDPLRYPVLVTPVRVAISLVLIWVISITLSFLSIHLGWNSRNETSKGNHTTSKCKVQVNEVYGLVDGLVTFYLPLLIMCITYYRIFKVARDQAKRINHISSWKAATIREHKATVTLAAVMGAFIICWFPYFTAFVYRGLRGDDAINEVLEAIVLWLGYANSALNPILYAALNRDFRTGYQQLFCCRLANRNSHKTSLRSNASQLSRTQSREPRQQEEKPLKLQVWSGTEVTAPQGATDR
# Method: as §2
# Muscarinic M2 = target: T14, Muscarinic M2 (Homo sapiens, UniProt P08172); test: Receptor Profiling 252710; assay type: binding
# T14 construct: purchased Eurofins Discovery Services (Panlabs safety panel)
# T14 sequence (P08172 whole entry): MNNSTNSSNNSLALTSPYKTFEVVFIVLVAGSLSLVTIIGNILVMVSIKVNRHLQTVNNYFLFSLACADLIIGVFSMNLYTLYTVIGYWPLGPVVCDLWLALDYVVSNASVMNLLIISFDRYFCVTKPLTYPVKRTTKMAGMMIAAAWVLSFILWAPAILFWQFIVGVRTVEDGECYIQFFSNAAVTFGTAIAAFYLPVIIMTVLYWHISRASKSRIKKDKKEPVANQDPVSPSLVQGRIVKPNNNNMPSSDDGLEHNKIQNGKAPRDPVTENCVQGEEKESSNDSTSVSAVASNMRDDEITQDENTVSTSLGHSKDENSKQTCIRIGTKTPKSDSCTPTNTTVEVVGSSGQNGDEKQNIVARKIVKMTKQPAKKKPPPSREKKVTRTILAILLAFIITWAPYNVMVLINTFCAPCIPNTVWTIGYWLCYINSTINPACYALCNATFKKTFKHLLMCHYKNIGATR
# Method: as §2
# [4] = target: T15, Nicotinic Acetylcholine α4β2, Cytisine (Homo sapiens, UniProt P17787+P43681); test: Receptor Profiling 299031; assay type: binding
# T15 construct: purchased Eurofins Discovery Services (Panlabs safety panel)
# Method: as §2
# Opiate Mu (OP3, MOP) = target: T16, Opiate Mu (OP3, MOP) (Homo sapiens, UniProt P35372); test: Receptor Profiling 260410; assay type: binding
# T16 construct: purchased Eurofins Discovery Services (Panlabs safety panel)
# Method: as §2
# Potassium Channel [KA] = test: Receptor Profiling 265510; assay type: binding, rat; settings: 10 μM
# Method: as §2
# hERG potassium channel = target: T17, hERG potassium channel (Homo sapiens, UniProt Q12809); test: Receptor Profiling 265910; assay type: binding; settings: probe [3H]dofetilide
# T17 construct: purchased Eurofins Discovery Services (Panlabs safety panel)
# Method: as §2
# [5] = target: T18, Transporter, Dopamine (DAT) (Homo sapiens, UniProt Q01959); test: Receptor Profiling 220320; assay type: binding
# T18 construct: Eurofins Discovery Services (contract assay) 220320
# Method: as §2
# [6] = Serum shift of MIC (+/- 10% fetal bovine serum)
structure (smiles),measurement,setting,value
O=C(Nc1nnc(-c2ccc(F)cc2)o1)N1CCc2ccccc2C1 [MBX-4132],"Microsomal stability (t½, min) Rat","[1]; Reported value, Eurofins",>120 min
same,half-life,"[1]; rat, liver microsomes, read-out: Microsomal Stability (t1/2; min) Rat",> 2 h
same,"Microsomal stability (t½, min) Human","[2]; Reported value, Eurofins",>120 min
same,half-life,"[2]; human, liver microsomes, read-out: Microsomal Stability (t1/2; min) Hum.",> 2 h
same,MIC,"Mycoplasma pneumoniae; Mycoplasma pneumoniae ATCC 15531, replicates",≥34 µg/mL
same,MIC,"Mycoplasma pneumoniae; Mycoplasma, ATCC15531, strain ATCC 15531, read-out: MIC",≥ 34 µg/mL
same,"abnormal observations, multidose tolerability","[3]; female CD-1 mice, 10 ml/kg of 1.0 mg/ml suspension QD or BID for 7 d, observed 10 d",No abnormal observations
same,"abnormal observations, single dose tolerability","[3]; female CD-1 mice, oral gavage 10 ml/kg of 1.0, 2.5 or 10.0 mg/ml suspension, 24 h",No abnormal observations
same,adverse effects (in words),"[3]; repeat dosing 10 mg/kg BID, 7 d",no obvious adverse effects
same,adverse effects (in words),[3]; single dose of 100 mg/kg,no obvious adverse effects
same,IC50,Kir2.1,> 30 µM
same,IC50,Kv4.3/ChIP2,> 30 µM
same,IC50,Nav1.5,> 30 µM
same,IC50,Nav1.5 late current,> 30 µM
same,IC50,"Nav1.5 late current; read-out: Est. IC50, Antagonist mode",> 30 µM
same,IC50,"Nav1.5 late current; read-out: IC50 (µM) reported, Nav1.5 late current agonist, CYL7004QP1DR",> 30 µM
same,IC50,"Nav1.5 late current; read-out: IC50 (µM) reported, Nav1.5 late current antagonist, CYL7004QP2DR",> 30 µM
same,IC50,hERG,> 30 µM
same,inhibition at 10 µM,Monoamine Oxidase MAO-A,-108%
same,inhibition at 10 µM,Adrenergic β1,-8%
same,inhibition at 10 µM,Adrenergic β2,35%
same,inhibition at 10 µM,Androgen (testosterone),-2%
same,inhibition at 10 µM,Dopamine D2s,21%
same,inhibition at 10 µM,Endothelin ETA,-15%
same,inhibition at 10 µM,Glucocorticoid,-2%
same,% inhibition,"Glutamate, NMDA, Agonism",8%
same,inhibition at 10 µM,Histamine H2,-7%
same,inhibition at 10 µM,Muscarinic M2,7%
same,inhibition at 10 µM,[4],-5%
same,inhibition at 10 µM,"Opiate Mu (OP3, MOP)",17%
same,% inhibition,Potassium Channel [KA],-2%
same,inhibition at 10 µM,hERG potassium channel,27%
same,inhibition at 10 µM,[5],3%
same,Serum shift (fold),[6]; Average Value,16 fold
same,serum Shift,[6]; Ratio of MIC +/- 10% fetal bovine serum added,16
same,Serum shift (fold),[6]; Replicate 1/2,16 fold
